# Measured values taken from patent publication US20260166182A1, “CYANINE-BASED FLUOROPHORES” (The General Hospital Corporation, priority 2022, published 2026).
# Values joined by “and” are separate entries in the source; they are usually repeats but may differ in a detail not shown here. Equal values may be shown once.
# Tests used:
# [1] = test system: pancreatic ductal adenocarcinoma (PDAC; Pan02 cell); assay: NIR-II fluorescence imaging of subcutaneous PDAC tumor-bearing C57BL/6 mice; type: in vivo, mouse
# Source text: General NIR-II fluorescence imaging: A 640×512-pixel InGaAs camera (Ninox640, Raptor Photonics) and macro zoom lens (0-10×; Navitar Zoom 7000 with SWIR coating) along with 900, 1070, 1100, and 1200 nm long-pass (LP) filters from either Thorlab or Edmund optics were used to collect the NIR-II signal. InGaAs camera played a role as an open-air imaging system along with the support of the FLARE system. An 808 nm fiber-coupled diode laser ([…] at the sample) was used as an excitation source. Data acquisition was done using in-house developed software. The mice fur on the region of interest was shaved prior to imaging using a clipper and removed completely using a depilatory cream. 100 μL of SH1 in 5 w/v % BSA saline ([…]) was injected through the tail vein. Mice were imaged with intact skin using InGaAs camera. At least 3 mice were analyzed for each sample. […]
# (§1) Statistical analysis: The fluorescence and background intensities of a region of interest over each tissue were quantified using customized imaging software and ImageJ v1.48 (National Institutes of Health, Bethesda, MD). The signal-to-background ratio (SBR) was calculated as SBR=fluorescence/background, where background was the fluorescence intensity of muscle. […] The differences among groups were determined using one-way ANOVA analysis to assess the statistical differences among more than two groups. […]
# PDAC (Pan02 cell line) = assay: Tumor targeting in Pan02 inoculated immune-deficient athymic nude mice; type: in vivo, mouse
# Source text: General NIR-II fluorescence imaging: A 640×512-pixel InGaAs camera (Ninox640, Raptor Photonics) and macro zoom lens (0-10×; Navitar Zoom 7000 with SWIR coating) along with 900, 1070, 1100, and 1200 nm long-pass (LP) filters from either Thorlab or Edmund optics were used to collect the NIR-II signal. InGaAs camera played a role as an open-air imaging system along with the support of the FLARE system. An 808 nm fiber-coupled diode laser ([…] at the sample) was used as an excitation source. Data acquisition was done using in-house developed software. The mice fur on the region of interest was shaved prior to imaging using a clipper and removed completely using a depilatory cream. 100 μL of SH1 in 5 w/v % BSA saline ([…]) was injected through the tail vein. Mice were imaged with intact skin using InGaAs camera. At least 3 mice were analyzed for each sample.
# as §1
# [2] = Serum protein binding kinetics (size exclusion column); type: in vitro ADME; conditions: bovine, FBS/PBS 50/50 v/v % (serum proteins, mostly albumin), pH 7.4; within 30 min, FBS/PBS 50/50, 37° C.
# Protocol: FIG. 15 Reaction kinetics of SH1, ICG, and IR-780 to serum proteins, mostly albumin. 50 nmol of each dye was mixed with 1 ml of FBS/PBS (pH 7.4) 50/50 v/v %, incubated at 37° C., and analyzed using a BioResolve size exclusion column (200 Å, 2.5 μm, 7.8×300 mm). The binding percentage was calculated by dividing by absorbance of bound dye at 24 h assuming the dyes can bind in maximum capacity in the protein at 24 h.
# [3] = test system: lung carcinoma (LLC cell line); assay: NIR-II fluorescence imaging of subcutaneous LLC tumor-bearing C57BL/6 mice; type: in vivo, mouse
# Source text: General NIR-II fluorescence imaging: A 640×512-pixel InGaAs camera (Ninox640, Raptor Photonics) and macro zoom lens (0-10×; Navitar Zoom 7000 with SWIR coating) along with 900, 1070, 1100, and 1200 nm long-pass (LP) filters from either Thorlab or Edmund optics were used to collect the NIR-II signal. InGaAs camera played a role as an open-air imaging system along with the support of the FLARE system. An 808 nm fiber-coupled diode laser ([…] at the sample) was used as an excitation source. Data acquisition was done using in-house developed software. […] Mice were imaged with intact skin using InGaAs camera. At least 3 mice were analyzed for each sample. Tumor-bearing mouse models: Animals were housed in an AAALAC-certified facility and were studied under the protocols approved by the MGH IACUC (2016N000136). Mice were maintained under anesthesia with isoflurane and oxygen during the experiment. To establish the various tumor-bearing mouse models including lung carcinoma, pancreatic ductal adenocarcinoma (PDAC), and triple negative breast adenocarcinoma, eight-week-old C57BL/6 mice (Taconic Farms, Germantown, NY) were subcutaneously injected with 2×10^5 LLC, Pan02, and E0771 cells suspended in DMEM/Matrigel (100 μL, 50 v/v %) in the flank region, respectively. Female C57BL/6 mice were used for the breast cancer (E0771) model, otherwise male mice were used. […] Statistical analysis: The fluorescence and background intensities of a region of interest over each tissue were quantified using customized imaging software and ImageJ v1.48 (National Institutes of Health, Bethesda, MD). The signal-to-background ratio (SBR) was calculated as SBR=fluorescence/background, where background was the fluorescence intensity of muscle. Data were reported as mean±s.e.m. with a minimum of three biological replicates. Student's t-test statistical analysis was performed to evaluate the significance of the experimental data. The differences among groups were determined using one-way ANOVA analysis to assess the statistical differences among more than two groups. […] The data was indicated with *p<0.05, ** p<0.01, *** p<0.001, and **** p<0.0001.
smiles,measurement,setting,value
"CCCCN1/C(=C/C=C2\CCCC(/C=C/C3=[N+](CCCC)c4ccc(Cl)cc4C3(C)C)=C2Cl)C(C)(C)c2cc(Cl)ccc21 [SH1, 1-butyl-2-((E)-2-((E)-3-(2-((E)-1-butyl-5-chloro-3,3-dimethylindolin-2-ylidene)ethylidene)-2-chlorocyclohex-1-en-1-yl)vinyl)-5-chloro-3,3-dimethyl-3H-indol-1-ium]",TBR,"[1]; PDAC less than 5 mm in size, compared to healthy tissue",~9.5
same,onset of signals in the cancerous region,"[1]; intravenous, until 24 h post-injection",did not appear at early time points
same,tumor-to-muscle signal ratio (TMR),PDAC (Pan02 cell line),~3.0 and 3.6
same,"fraction unbound at 30 min, 50 μM",[2],~0.65
same,tumor targeting / tumor signal,"[3]; intravenous, NIR-II imaging until 48 h post-injection",superb signal intensity in tumor area
same,TBR,[3]; larger-sized lung tumors,23.7
